The source of these data is US7902227B2, “C-7 isoxazolinyl quinolone / naphthyridine derivatives useful as antibacterial agents” (Janssen Pharmaceutica NV., priority 2008, dated 2011).

What all share (format): cell-based
Experiment [1] relates to strain B, fluoroquinolone-resistant clinical isolate of Streptococcus pneumoniae. Description: In vitro antibacterial activity (MIC), microdilution broth method (NCCLS), strain B. Particulars: read-out: In vitro Antibacterial Activity MIC, B. The protocol:
(§1) Minimal inhibitory concentration (MIC) has been an indicator of in vitro antibacterial activity widely used in the art. The in vitro antimicrobial activity of representative compounds of the present invention was determined by the microdilution broth method following the test method from the National Committee for Clinical Laboratory Standards (NCCLS). This method is described in the NCCLS Document M7-A4, Vol. 17, No. 2, “Methods for Dilution Antimicrobial Susceptibility Test for Bacteria that Grow Aerobically—Fourth Edition”, which is incorporated herein by reference.
(§2) In this method two-fold serial dilutions of drug in cation adjusted Mueller-Hinton broth are added to wells in microdilution trays. The test organisms are prepared by adjusting the turbidity of actively growing broth cultures so that the final concentration of test organism after it is added to the wells is approximately 5×10^4 CFU/well.
(§3) Following inoculation of the microdilution trays, the trays are incubated at 35° C. for 16-20 hours and then read. […] The amount of growth in the wells containing the test compound is compared with the amount of growth in the growth-control wells (no test compound) used in each tray. As set forth in Table 4, representative compounds of the present invention were tested against a variety of pathogenic bacteria resulting in a range of activities depending on the organism tested.
(In broth dilution the organism is exposed to a series of concentrations in liquid medium.)

In experiment [2] the test system is strain D, fluoroquinolone-resistant clinical isolate of Streptococcus pneumoniae. Nature of the experiment: In vitro antibacterial activity (MIC), microdilution broth method (NCCLS), strain D. Particulars: read-out: In vitro Antibacterial Activity MIC, D. The method, then: as §1, §2, §3
Experiment [3] concerns Staphylococcus aureus OC4172. Description: In vitro antibacterial activity (MIC), microdilution broth method (NCCLS), strain A. Particulars: cation adjusted Mueller-Hinton broth, 35° C., 16-20 hours. The method, then:
as §1, §2, §3

For experiment [4], the system named is Streptococcus pneumoniae ATCC 49619. Nature of the experiment: In vitro antibacterial activity (MIC), microdilution broth method (NCCLS), strain E. Particulars: ATCC49619, 35° C., 16-20 hours. The method, then: as §1, §2, §3
Experiment [5] relates to strain C, fluoroquinolone-resistant clinical isolate of Streptococcus pneumoniae. Description: In vitro antibacterial activity (MIC), microdilution broth method (NCCLS), strain C. Conditions: read-out: In vitro Antibacterial Activity MIC, C. The method, then: as §1, §2, §3

In brackets after ≈: the same amount, converted by molar mass.

Usually MIC stands for the smallest concentration in the dilution series that meets the test's criterion for growth inhibition. Consider `COc1ccc(C2=NOC3CN(c4nc5c(cc4F)c(=O)c(C(=O)O)cn5C4CC4)CC23)cn1` (centres unmarked) [ID No. 111, 1-Cyclopropyl-6-fluoro-7-[3-(6-methoxypyridin-3-yl)-3a,4,6,6a-tetrahydro-pyrrolo[3,4-d]isoxazol-5-yl]-4-oxo-1,4-dihydro-[1,8]naphthyridine-3-carboxylic acid], for which the MIC was 8 µg/mL (≈ 17.2 µM) in experiment [1]; 2 µg/mL (≈ 4.3 µM) in experiment [2]; 0.03 µg/mL (≈ 0.0645 µM) in experiment [3]; 0.5 µg/mL (≈ 1.07 µM) in experiment [4]; 4 µg/mL (≈ 8.59 µM) in experiment [5].
As to `O=C(O)c1cn(-c2ccc(F)cc2F)c2nc(N3CC4ON=C(c5ccc(Cl)cc5)C4C3)c(F)cc2c1=O` (centres unmarked) [ID No. 101, 7-[3-(4-Chloro-phenyl)-3a,4,6,6a-tetrahydro-pyrrolo[3,4-d]isoxazol-5-yl]-1-(2,4-difluoro-phenyl)-6-fluoro-4-oxo-1,4-dihydro-[1,8]naphthyridine-3-carboxylic acid], the MIC turned out to be 1 µg/mL (≈ 1.85 µM) in experiment [1]; 4 µg/mL (≈ 7.4 µM) in experiment [2]; 0.06 µg/mL (≈ 0.111 µM) in experiment [3]; 1 µg/mL (≈ 1.85 µM) in experiment [4]; 2 µg/mL (≈ 3.7 µM) in experiment [5].
With `COc1ccc(C2=NOC3CN(c4cc5c(cc4F)c(=O)c(C(=O)O)cn5C4CC4)CC23)cn1` (centres unmarked) [ID No. 134, 1-Cyclopropyl-6-fluoro-7-[3-(6-methoxy-pyridin-3-yl)-3a,4,6,6a-tetrahydro-pyrrolo[3,4-d]isoxazol-5-yl]-4-oxo-1,4-dihydro-quinoline-3-carboxylic acid], the minimum inhibitory concentration (MIC) was 16 µg/mL (≈ 34.4 µM) in experiment [1]; 8 µg/mL (≈ 17.2 µM) in experiment [2]; 0.12 µg/mL (≈ 0.258 µM) in experiment [3]; 2 µg/mL (≈ 4.31 µM) in experiment [4]; > 16 µg/mL in experiment [5].
The like results for `O=C(O)c1cn(-c2ccc(F)cc2F)c2nc(N3CC4ON=C(CN5C(=O)c6ccccc6C5=O)C4C3)c(F)cc2c1=O` (centres unmarked) [ID No. 108, 1-(2,4-Difluoro-phenyl)-7-[3-(1,3-dioxo-1,3-dihydro-isoindol-2-ylmethyl)-3a,4,6,6a-tetrahydro-pyrrolo[3,4-d]isoxazol-5-yl]-6-fluoro-4-oxo-1,4-dihydro-[1,8]naphthyridine-3-carboxylic acid] were, in that order, > 16 µg/mL, > 16 µg/mL, 0.25 µg/mL (≈ 0.424 µM), 8 µg/mL (≈ 13.6 µM) and > 16 µg/mL.
The like results for `O=C(O)c1cn(C2CC2)c2nc(N3CC4ON=C(c5ccccn5)C4C3)c(F)cc2c1=O` (centres unmarked) [ID No. 113, 1-Cyclopropyl-6-fluoro-4-oxo-7-(3-pyridin-2-yl-3a,4,6,6a-tetrahydro-pyrrolo[3,4-d]isoxazol-5-yl)-1,4-dihydro-[1,8]naphthyridine-3-carboxylic acid] were, in that order, 16 µg/mL (≈ 36.7 µM), 4 µg/mL (≈ 9.19 µM), 0.06 µg/mL (≈ 0.138 µM), 1 µg/mL (≈ 2.3 µM) and 2 µg/mL (≈ 4.59 µM).
On to `COc1c(N2C[C@@H]3ON=C(c4ccccn4)[C@@H]3C2)ccc2c(=O)c(C(=O)O)cn(C3CC3)c12` (relative stereo) [ID No. 150, 7-[cis-3-(2-pyridyl)-3a,4,6,6a-tetrahydropyrrolo[3,4-d]isoxazol-5-yl]-1-cyclopropyl-8-methoxy-4-oxo-1,4-dihydroquinoline-3-carboxylic acid], for which the MIC was > 16 µg/mL in experiment [1]; 8 µg/mL (≈ 17.9 µM) in experiment [2]; 0.06 µg/mL (≈ 0.134 µM) in experiment [3]; 1 µg/mL (≈ 2.24 µM) in experiment [4]; 8 µg/mL (≈ 17.9 µM) in experiment [5].
For `O=C(O)c1cn(C2CC2)c2nc(N3CC4ON=C(CN5C(=O)c6ccccc6C5=O)C4C3)c(F)cc2c1=O` (centres unmarked) [ID No. 118, 1-Cyclopropyl-7-[3-(1,3-dioxo-1,3-dihydro-isoindol-2-ylmethyl)-3a,4,6,6a-tetrahydro-pyrrolo[3,4-d]isoxazol-5-yl]-6-fluoro-4-oxo-1,4-dihydro-[1,8]naphthyridine-3-carboxylic acid], the MIC in experiment [1] is > 16 µg/mL; in experiment [2], > 16 µg/mL; in experiment [3], 2 µg/mL (≈ 3.86 µM); in experiment [4], 16 µg/mL (≈ 30.9 µM); in experiment [5] it was > 16 µg/mL.
With `O=C(O)c1cn(C2CC2)c2cc(N3CC4ON=C(c5cccnc5)C4C3)c(F)cc2c1=O` (centres unmarked) [ID No. 136, 1-Cyclopropyl-6-fluoro-7-[3-(pyridin-3-yl)-3a,4,6,6a-tetrahydro-pyrrolo[3,4-d]isoxazol-5-yl]-4-oxo-1,4-dihydro-quinoline-3-carboxylic acid], the MIC in experiment [1] is 8 µg/mL (≈ 18.4 µM); in experiment [2] it was 8 µg/mL (≈ 18.4 µM); in experiment [3] it was 0.06 µg/mL (≈ 0.138 µM); in experiment [4] it was 1 µg/mL (≈ 2.3 µM); in experiment [5] it was 4 µg/mL (≈ 9.21 µM).
Take `COc1c(N2C[C@@H]3ON=C(c4ccccn4)[C@@H]3C2)c(F)cc2c(=O)c(C(=O)O)cn(C3CC3)c12` (relative stereo) [ID No. 122, 7-[cis-3-(2-pyridyl)-3a,4,6,6a-tetrahydropyrrolo[3,4-d]isoxazol-5-yl]-1-cyclopropyl-8-methoxy-6-fluoro-4-oxo-1,4-dihydroquinoline-3-carboxylic acid]: the MIC in experiment [1] was 16 µg/mL (≈ 34.4 µM); in experiment [2], 2 µg/mL (≈ 4.31 µM); in experiment [3] it was < 0.12 µg/mL; in experiment [4], 1 µg/mL (≈ 2.15 µM); in experiment [5], 16 µg/mL (≈ 34.4 µM).
In the case of `O=C(O)c1cn(C2CC2)c2nc(N3CC4ON=C(c5ccc(C(F)(F)F)nc5)C4C3)c(F)cc2c1=O` (centres unmarked) [ID No. 112, 1-Cyclopropyl-6-fluoro-4-oxo-7-[3-(6-trifluoromethyl-pyridin-3-yl)-3a,4,6,6a-tetrahydro-pyrrolo[3,4-d]isoxazol-5-yl]-1,4-dihydro-[1,8]naphthyridine-3-carboxylic acid], the MIC was 16 µg/mL (≈ 31.8 µM) in experiment [1]; 8 µg/mL (≈ 15.9 µM) in experiment [2]; 0.25 µg/mL (≈ 0.497 µM) in experiment [3]; 2 µg/mL (≈ 3.97 µM) in experiment [4]; > 16 µg/mL in experiment [5].
The like results for `O=C(O)c1cn(C2CC2)c2nc(N3CC4ON=C(CO)C4C3)c(F)cc2c1=O` (centres unmarked) [ID No. 117, 1-Cyclopropyl-6-fluoro-7-(3-hydroxymethyl-3a,4,6,6a-tetrahydro-pyrrolo[3,4-d]isoxazol-5-yl)-4-oxo-1,4-dihydro-[1,8]naphthyridine-3-carboxylic acid] were, in that order, 16 µg/mL (≈ 41.2 µM), 16 µg/mL (≈ 41.2 µM), 0.5 µg/mL (≈ 1.29 µM), 8 µg/mL (≈ 20.6 µM) and 16 µg/mL (≈ 41.2 µM).
The like results for `COc1c(N2C[C@@H]3ON=C(c4ccc(C(F)(F)F)nc4)[C@@H]3C2)c(F)cc2c(=O)c(C(=O)O)cn(C3CC3)c12` (relative stereo) [ID No. 121, 7-[cis-3-(6-Trifluoromethyl-3-pyridyl)-3a,4,6,6a-tetrahydropyrrolo[3,4-d]isoxazol-5-yl]-1-cyclopropyl-8-methoxy-6-fluoro-4-oxo-1,4-dihydroquinoline-3-carboxylic acid] were, in that order, 0.16 µg/mL (≈ 0.3 µM), 8 µg/mL (≈ 15 µM), 0.25 µg/mL (≈ 0.47 µM), 4 µg/mL (≈ 7.51 µM) and > 16 µg/mL.
In the case of `C[C@H]1COc2c(N3CC4ON=C(c5ccccn5)C4C3)c(F)cc3c(=O)c(C(=O)O)cn1c23` (some centres unmarked) [ID No. 129], the MIC in experiment [1] is > 16 µg/mL; in experiment [2], 4 µg/mL (≈ 8.88 µM); in experiment [3], 0.06 µg/mL (≈ 0.133 µM); in experiment [4], 1 µg/mL (≈ 2.22 µM); in experiment [5], 16 µg/mL (≈ 35.5 µM).
The like results for `NCC1=NOC2CN(c3nc4c(cc3F)c(=O)c(C(=O)O)cn4-c3ccc(F)cc3F)CC12` (centres unmarked) [ID No. 200, 7-(3-Aminomethyl-3a,4,6,6a-tetrahydro-pyrrolo[3,4-d]isoxazol-5-yl)-1-(2,4-difluoro-phenyl)-6-fluoro-4-oxo-1,4-dihydro-[1,8]naphthyridine-3-carboxylic acid] were, in that order, > 16 µg/mL, > 16 µg/mL, 0.12 µg/mL (≈ 0.261 µM), 1 µg/mL (≈ 2.18 µM) and > 16 µg/mL.
The like results for `CCOC(=O)C1=NOC2CN(c3c(F)cc4c(=O)c(C(=O)O)cn5c4c3OC[C@@H]5C)CC12` (stereo partly drawn) [ID No. 131, 7-[cis-3-(ethoxycarbonyl)-3a,4,6,6a-tetrahydropyrrolo[3,4-d]isoxazol-5-yl]S-(−)-9,10-difluoro-2,3-dihydro-3-methyl-7-oxo-7H-pyrido-[1,2,3-de][1,4]-benzoxazine-6-carboxylic acid] were, in that order, > 16 µg/mL, > 16 µg/mL, 1 µg/mL (≈ 2.25 µM), 16 µg/mL (≈ 35.9 µM) and > 16 µg/mL.
The like results for `O=C(O)c1cn(-c2ccc(F)cc2F)c2nc(N3CC4ON=C(CO)C4C3)c(F)cc2c1=O` (centres unmarked) [ID No. 107, 1-(2,4-Difluoro-phenyl)-6-fluoro-7-(3-hydroxymethyl-3a,4,6,6a-tetrahydro-pyrrolo[3,4-d]isoxazol-5-yl)-4-oxo-1,4-dihydro-[1,8]naphthyridine-3-carboxylic acid] were, in that order, > 16 µg/mL, > 16 µg/mL, 0.12 µg/mL (≈ 0.261 µM), 2 µg/mL (≈ 4.34 µM) and > 16 µg/mL.
